Results: patent US20220033460A1, “IDENTIFICATION AND USE OF T CELL EPITOPES IN DESIGNING DIAGNOSTIC AND THERAPEUTIC APPROACHES FOR COVID-19” (priority 2020, published 2022)

Tested on: TCRs from the BAL of COVID-19 patients
Type: cell-based, human

Sequence: LLLLDRLNQLESKMSGKGQQQQ (SARS-CoV-2 epitope) [N221-242]
- recognition of the peptide, effect of the mutation (NFAT activation): unaffected
